Assay results published in US20230085307A1, “PYRIDAZINONE COMPOUND AND HERBICIDE” (NISSAN CHEMICAL CORPORATION, priority 2019, published 2023).

Tests used:
blackgrass [1] = experiment: Test Example 5: herbicidal effect by foliage application, plastic box (Table 20, symbol J); format: in vivo, blackgrass (Alopecurus myosuroides); details: foliage application, 320 g/ha, evaluated three weeks after application
Procedure, shortened: (§1)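 Plants sown in sterilized diluvial soil and grown 14 days in a greenhouse at 25° C to 30° C, then sprayed on the foliage with the compound's emulsion diluted in water to a predetermined herbicide amount. Injury to weeds and crops scored three weeks after application on a visual rating scale.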

barnyard grass [2] = experiment: Test Example 4: herbicidal effect by soil treatment (Table 19, symbol H); format: in vivo, barnyard grass (Echinochloa crus-galli); details: amount of applied herbicide 320 g/ha
Procedure, shortened: (§2)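 Three weeks of greenhouse growth at 25° C. to 30° C. followed a uniform surface spray of water-diluted emulsion at a predetermined herbicide amount. Seeds had been sown beforehand under about 1.5 cm of sterilized diluvial soil. Grading followed criteria set out in an earlier test.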

lambsquarters [3] = experiment: Test Example 5: herbicidal effect by foliage application, plastic box (Table 20, symbol O); format: in vivo, lambsquarters (Chenopodium album); details: foliage application, 320 g/ha, evaluated three weeks after application
Procedure, shortened: as §1

chickweed [4] = experiment: Test Example 5: herbicidal effect by foliage application, plastic box (Table 20, symbol P); format: in vivo, common chickweed (Stellaria media); details: foliage application, 320 g/ha, evaluated three weeks after application
Procedure, shortened: as §1

Italian ryegrass [5] = experiment: Test Example 5: herbicidal effect by foliage application, plastic box (Table 20, symbol K); format: in vivo, Italian ryegrass (Lolium multiflorum); details: foliage application, 320 g/ha, evaluated three weeks after application
Procedure, shortened: as §1

windgrass [6] = experiment: Test Example 4: herbicidal effect by soil treatment (Table 19, symbol L); format: in vivo, windgrass (Apera spica-venti); details: amount of applied herbicide 320 g/ha
Procedure, shortened: as §2

blackgrass [7] = experiment: Test Example 4: herbicidal effect by soil treatment (Table 19, symbol J); format: in vivo, blackgrass (Alopecurus myosuroides); details: amount of applied herbicide 320 g/ha
Procedure, shortened: as §2

wild oat [8] = experiment: Test Example 5: herbicidal effect by foliage application, plastic box (Table 20, symbol I); format: in vivo, wild oat (Avena fatua); details: foliage application, 320 g/ha, evaluated three weeks after application
Procedure, shortened: as §1

Chinese sprangletop = experiment: Test Example 3: herbicidal effect by foliage application, Wagner pot (Table 18, symbol D); format: in vivo, chinese sprangletop (Leptochloa chinensis); details: amount of applied herbicide 320 g/ha
Procedure, shortened: (§3)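 Plants were sown in alluvial soil held under 0.1–0.5 cm standing water and grown 14 days in a greenhouse at 25–30 °C. An emulsifiable formulation, water-diluted to the set dose, was then sprayed onto the foliage, and effects were scored three weeks later using previously defined criteria.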

redroot pigweed [9] = experiment: Test Example 4: herbicidal effect by soil treatment (Table 19, symbol N); format: in vivo, redroot pigweed (Amaranthus retroflexus); details: amount of applied herbicide 320 g/ha
Procedure, shortened: as §2

southern crabgrass [10] = experiment: Test Example 4: herbicidal effect by soil treatment (Table 19, symbol F); format: in vivo, southern crabgrass (Digitaria ciliaris); details: amount of applied herbicide 320 g/ha
Procedure, shortened: as §2

chickweed [11] = experiment: Test Example 4: herbicidal effect by soil treatment (Table 19, symbol P); format: in vivo, common chickweed (Stellaria media); details: amount of applied herbicide 320 g/ha
Procedure, shortened: as §2

velvetleaf [12] = experiment: Test Example 5: herbicidal effect by foliage application, plastic box (Table 20, symbol M); format: in vivo, velvetleaf (Abutilon theophrasti); details: foliage application, 320 g/ha, evaluated three weeks after application
Procedure, shortened: as §1

persian speedwell [13] = experiment: Test Example 5: herbicidal effect by foliage application, plastic box (Table 20, symbol R); format: in vivo, Persian speedwell (Veronica persica); details: foliage application, 320 g/ha, evaluated three weeks after application
Procedure, shortened: as §1

southern crabgrass [14] = experiment: Test Example 5: herbicidal effect by foliage application, plastic box (Table 20, symbol F); format: in vivo, southern crabgrass (Digitaria ciliaris); details: foliage application, 320 g/ha, evaluated three weeks after application
Procedure, shortened: as §1

redroot pigweed [15] = experiment: Test Example 5: herbicidal effect by foliage application, plastic box (Table 20, symbol N); format: in vivo, redroot pigweed (Amaranthus retroflexus); details: foliage application, 320 g/ha, evaluated three weeks after application
Procedure, shortened: as §1

green foxtail [16] = experiment: Test Example 5: herbicidal effect by foliage application, plastic box (Table 20, symbol G); format: in vivo, green foxtail (Setaria viridis); details: foliage application, 320 g/ha, evaluated three weeks after application
Procedure, shortened: as §1

Italian ryegrass [17] = experiment: Test Example 4: herbicidal effect by soil treatment (Table 19, symbol K); format: in vivo, Italian ryegrass (Lolium multiflorum); details: amount of applied herbicide 320 g/ha
Procedure, shortened: as §2

green foxtail [18] = experiment: Test Example 4: herbicidal effect by soil treatment (Table 19, symbol G); format: in vivo, green foxtail (Setaria viridis); details: amount of applied herbicide 320 g/ha
Procedure, shortened: as §2

persian speedwell [19] = experiment: Test Example 4: herbicidal effect by soil treatment (Table 19, symbol R); format: in vivo, Persian speedwell (Veronica persica); details: amount of applied herbicide 320 g/ha
Procedure, shortened: as §2

lambsquarters [20] = experiment: Test Example 4: herbicidal effect by soil treatment (Table 19, symbol O); format: in vivo, lambsquarters (Chenopodium album); details: amount of applied herbicide 320 g/ha
Procedure, shortened: as §2

wild oat [21] = experiment: Test Example 4: herbicidal effect by soil treatment (Table 19, symbol I); format: in vivo, wild oat (Avena fatua); details: amount of applied herbicide 320 g/ha
Procedure, shortened: as §2

windgrass [22] = experiment: Test Example 5: herbicidal effect by foliage application, plastic box (Table 20, symbol L); format: in vivo, windgrass (Apera spica-venti); details: foliage application, 320 g/ha, evaluated three weeks after application
Procedure, shortened: as §1

rice flat sedge = experiment: Test Example 3: herbicidal effect by foliage application, Wagner pot (Table 18, symbol E); format: in vivo, rice flat sedge (Cyperus iria); details: amount of applied herbicide 320 g/ha
Procedure, shortened: as §3

barnyard grass [23] = experiment: Test Example 3: herbicidal effect by foliage application, Wagner pot (Table 18, symbol H); format: in vivo, barnyard grass (Echinochloa crus-galli); details: amount of applied herbicide 320 g/ha
Procedure, shortened: as §3

barnyard grass [24] = experiment: Test Example 5: herbicidal effect by foliage application, plastic box (Table 20, symbol H); format: in vivo, barnyard grass (Echinochloa crus-galli); details: foliage application, 320 g/ha, evaluated three weeks after application
Procedure, shortened: as §1

velvetleaf [25] = experiment: Test Example 4: herbicidal effect by soil treatment (Table 19, symbol M); format: in vivo, velvetleaf (Abutilon theophrasti); details: amount of applied herbicide 320 g/ha
Procedure, shortened: as §2

SMILES	H: barnyard grass, herbicidal effect rating (barnyard grass [2])	L: windgrass, herbicidal effect rating (windgrass [6])	J: blackgrass, herbicidal effect rating (blackgrass [7])	herbicidal effect on D: Chinese sprangletop (Chinese sprangletop)	N: redroot pigweed, herbicidal effect rating (redroot pigweed [9])	F: southern crabgrass, herbicidal effect rating (southern crabgrass [10])	P: chickweed, herbicidal effect rating (chickweed [11])	K: Italian ryegrass, herbicidal effect rating (Italian ryegrass [17])	G: green foxtail, herbicidal effect rating (green foxtail [18])	R: persian speedwell, herbicidal effect rating (persian speedwell [19])	O: lambsquarters, herbicidal effect rating (lambsquarters [20])	I: wild oat, herbicidal effect rating (wild oat [21])	herbicidal effect on E: rice flat sedge (rice flat sedge)	herbicidal effect on H: barnyard grass (barnyard grass [23])	M: velvetleaf, herbicidal effect rating (velvetleaf [25])	further results
CCCC(=O)Oc1c(C)nn(C)c(=O)c1-c1c(-c2ccc(C)cc2)sc2ccc(C)cc12 [2-137]	0 (Herbicidal rate of 5% or less (almost no effect))	0 (Herbicidal rate of 5% or less (almost no effect))	0 (Herbicidal rate of 5% or less (almost no effect))	1 (Herbicidal rate of 5% or more and less than 20%)	0 (Herbicidal rate of 5% or less (almost no effect))	0 (Herbicidal rate of 5% or less (almost no effect))	4 (Herbicidal rate of 70% or more and less than 90%)	2 (Herbicidal rate of 20% or more and less than 40%)	0 (Herbicidal rate of 5% or less (almost no effect))	1 (Herbicidal rate of 5% or more and less than 20%)	0 (Herbicidal rate of 5% or less (almost no effect))	0 (Herbicidal rate of 5% or less (almost no effect))	5 (Herbicidal rate of 90% or more (almost completely withered))	1 (Herbicidal rate of 5% or more and less than 20%)	0 (Herbicidal rate of 5% or less (almost no effect))	herbicidal effect on J: blackgrass (blackgrass [1]): 0 (Herbicidal rate of 5% or less (almost no effect)); herbicidal effect on O: lambsquarters (lambsquarters [3]): 2 (Herbicidal rate of 20% or more and less than 40%); herbicidal effect on P: chickweed (chickweed [4]): 5 (Herbicidal rate of 90% or more (almost completely withered)); herbicidal effect on K: Italian ryegrass (Italian ryegrass [5]): 4 (Herbicidal rate of 70% or more and less than 90%); herbicidal effect on I: wild oat (wild oat [8]): 0 (Herbicidal rate of 5% or less (almost no effect)); herbicidal effect on M: velvetleaf (velvetleaf [12]): 4 (Herbicidal rate of 70% or more and less than 90%); herbicidal effect on R: persian speedwell (persian speedwell [13]): 5 (Herbicidal rate of 90% or more (almost completely withered)); herbicidal effect on F: southern crabgrass (southern crabgrass [14]): 0 (Herbicidal rate of 5% or less (almost no effect)); herbicidal effect on N: redroot pigweed (redroot pigweed [15]): 4 (Herbicidal rate of 70% or more and less than 90%); herbicidal effect on G: green foxtail (green foxtail [16]): 3 (Herbicidal rate of 40% or more and less than 70%); herbicidal effect on L: windgrass (windgrass [22]): 0 (Herbicidal rate of 5% or less (almost no effect)); herbicidal effect on H: barnyard grass (barnyard grass [24]): 0 (Herbicidal rate of 5% or less (almost no effect))
Cc1ccc2sc(-c3ccc4c(c3)OCO4)c(-c3c(O)c(C)nn(C)c3=O)c2c1 [2-156]	0 (Herbicidal rate of 5% or less (almost no effect))	0 (Herbicidal rate of 5% or less (almost no effect))	0 (Herbicidal rate of 5% or less (almost no effect))	0 (Herbicidal rate of 5% or less (almost no effect))	2 (Herbicidal rate of 20% or more and less than 40%)	0 (Herbicidal rate of 5% or less (almost no effect))	4 (Herbicidal rate of 70% or more and less than 90%)	0 (Herbicidal rate of 5% or less (almost no effect))	0 (Herbicidal rate of 5% or less (almost no effect))	4 (Herbicidal rate of 70% or more and less than 90%)	3 (Herbicidal rate of 40% or more and less than 70%)	0 (Herbicidal rate of 5% or less (almost no effect))	4 (Herbicidal rate of 70% or more and less than 90%)	3 (Herbicidal rate of 40% or more and less than 70%)	0 (Herbicidal rate of 5% or less (almost no effect))	herbicidal effect on J: blackgrass (criteria 0-5) (blackgrass [1]): 0 (Herbicidal rate of 5% or less (almost no effect)); herbicidal effect on O: lambsquarters (criteria 0-5) (lambsquarters [3]): 0 (Herbicidal rate of 5% or less (almost no effect)); herbicidal effect on P: chickweed (criteria 0-5) (chickweed [4]): 5 (Herbicidal rate of 90% or more (almost completely withered)); herbicidal effect on K: Italian ryegrass (criteria 0-5) (Italian ryegrass [5]): 1 (Herbicidal rate of 5% or more and less than 20%); herbicidal effect on I: wild oat (criteria 0-5) (wild oat [8]): 0 (Herbicidal rate of 5% or less (almost no effect)); herbicidal effect on M: velvetleaf (criteria 0-5) (velvetleaf [12]): 4 (Herbicidal rate of 70% or more and less than 90%); herbicidal effect on R: persian speedwell (criteria 0-5) (persian speedwell [13]): 5 (Herbicidal rate of 90% or more (almost completely withered)); herbicidal effect on F: southern crabgrass (criteria 0-5) (southern crabgrass [14]): 0 (Herbicidal rate of 5% or less (almost no effect)); herbicidal effect on N: redroot pigweed (criteria 0-5) (redroot pigweed [15]): 3 (Herbicidal rate of 40% or more and less than 70%); herbicidal effect on G: green foxtail (criteria 0-5) (green foxtail [16]): 0 (Herbicidal rate of 5% or less (almost no effect)); herbicidal effect on L: windgrass (criteria 0-5) (windgrass [22]): 0 (Herbicidal rate of 5% or less (almost no effect)); herbicidal effect on H: barnyard grass (criteria 0-5) (barnyard grass [24]): 0 (Herbicidal rate of 5% or less (almost no effect))
